Structures can show the parent of a compound that is named as a salt. Where two headings read alike, the source gives them in different places.

By IC50 is commonly meant the concentration that gives 50% inhibition.

Assay [1] has as its target PI3Kδ (p110δ/p85α) Recombinant Human Protein (Homo sapiens (Human), UniProt O00329). Kind of assay: PI3Kδ Scintillation Proximity Assay. It is filed as biochemical. The following applies: 2 μM ATP, 20 μM PIP2. An excerpt:
Materials: [γ-^33P]ATP (10 mCi/mL) and Wheat Germ Agglutinin (WGA) YSi SPA Scintillation Beads was purchased from Perkin Elmer (Waltham, Mass.). Lipid kinase substrate, D-myo-Phosphatidylinositol 4,5-bisphosphate (PtdIns(4,5)P2)D (+)-sn-1,2-di-O-octanoylglyceryl, 3-O-phospho linked (PIP2), CAS 204858-53-7, was purchased from Echelon Biosciences (Salt Lake City, Utah). PI3Kδ (p110δ/p85α) Recombinant Human Protein was purchased from Eurofins (St Charles, Mo.). ATP, MgCl2, DTT, EDTA, MOPS and CHAPS were purchased from Sigma Aldrich (St. Louis, Mo.).
The kinase reaction was conducted in polystyrene 384-well Greiner Bio-one white plate from Thermo Fisher Scientific in a final volume of 25 μL. Inhibitors were first diluted serially in DMSO and added to the plate wells before the addition of other reaction components. The final concentration of DMSO in the assay was 2%. The PI3Kδ assay was carried out at room temperature in 20 mM MOPS, pH 6.7, 10 mM MgCl2, 5 mM DTT and CHAPS 0.03%. Reactions were initiated by the addition of ATP, the final reaction mixture consisted of 20 μM PIP2, 2 μM ATP, 0.5 μCi [γ-^33P] ATP, 3.4 nM PI3Kδ. Reactions were incubated for 120 min and terminated by the addition of 40 μL SPA beads suspended in quench buffer: 163 mM potassium phosphate pH 7.8, 20% glycerol, 25 mM EDTA. The final concentration of SPA beads is 1.0 mg/mL. After the plate sealing, plates were shaken overnight at room temperature and centrifuged at 1500 rpm for 10 min, the radioactivity of the product was determined by scintillation counting on Topcount (PerkinElmer). IC50 determination was performed by fitting the curve of percent of the solvent control activity versus the log of the inhibitor concentration using the GraphPad Prism 6.0 software.
A general note: In a scintillation proximity assay essentially only radioactivity close to the scintillant gives light.

Assay [2] deals with Phosphorylated Ribosomal Protein S6 (RPS6) in THP-1 cells. Kind of assay: THP-1 RPS6 ELISA Assay. It is filed as cell-based, Human. The following applies: Homo sapiens, THP-1 cells, 10 nM MCP-1, read-out: PI3Kγ_THP1_RPS6_ELISA IC50. Summed up:
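Cells serum-starved overnight, pre-incubated with compounds 2 h at 37° C, then stimulated with 10 nM MCP-1 for 15 min. Lysates assayed for phospho-RPS6 by ELISA read at 450 nm. IC50 from percent inhibition vs log concentration curve fit.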

Chain of PI3Kδ (p110δ/p85α) Recombinant Human Protein (O00329 whole entry): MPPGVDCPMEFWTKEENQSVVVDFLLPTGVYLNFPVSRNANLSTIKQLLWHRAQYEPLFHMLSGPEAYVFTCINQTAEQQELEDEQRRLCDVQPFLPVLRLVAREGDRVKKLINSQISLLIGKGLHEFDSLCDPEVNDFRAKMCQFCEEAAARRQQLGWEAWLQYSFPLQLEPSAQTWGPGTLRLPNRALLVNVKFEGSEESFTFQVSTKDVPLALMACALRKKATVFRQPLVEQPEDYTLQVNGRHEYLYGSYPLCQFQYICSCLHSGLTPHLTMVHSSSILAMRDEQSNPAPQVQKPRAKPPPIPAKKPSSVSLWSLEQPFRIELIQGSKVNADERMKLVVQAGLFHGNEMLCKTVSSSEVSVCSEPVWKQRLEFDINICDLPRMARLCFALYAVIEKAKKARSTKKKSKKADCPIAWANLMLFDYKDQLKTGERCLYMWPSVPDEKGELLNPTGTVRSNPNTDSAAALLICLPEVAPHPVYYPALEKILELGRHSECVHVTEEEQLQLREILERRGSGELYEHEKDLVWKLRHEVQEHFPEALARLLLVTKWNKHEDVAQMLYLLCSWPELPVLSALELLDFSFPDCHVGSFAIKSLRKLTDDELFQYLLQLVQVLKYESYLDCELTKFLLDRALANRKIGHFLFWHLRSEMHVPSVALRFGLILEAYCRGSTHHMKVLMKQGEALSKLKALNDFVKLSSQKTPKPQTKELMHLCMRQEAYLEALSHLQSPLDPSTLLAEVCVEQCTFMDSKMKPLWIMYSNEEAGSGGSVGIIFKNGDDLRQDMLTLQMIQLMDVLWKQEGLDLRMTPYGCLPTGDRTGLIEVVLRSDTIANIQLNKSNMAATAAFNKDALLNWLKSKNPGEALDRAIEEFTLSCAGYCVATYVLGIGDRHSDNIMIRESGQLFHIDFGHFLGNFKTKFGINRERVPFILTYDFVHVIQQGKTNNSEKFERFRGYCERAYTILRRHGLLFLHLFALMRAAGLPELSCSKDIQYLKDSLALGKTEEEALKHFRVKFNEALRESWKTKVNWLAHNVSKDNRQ
Chain of PI3Kδ (p110δ/p85α) Recombinant Human Protein (P27986 whole entry partner): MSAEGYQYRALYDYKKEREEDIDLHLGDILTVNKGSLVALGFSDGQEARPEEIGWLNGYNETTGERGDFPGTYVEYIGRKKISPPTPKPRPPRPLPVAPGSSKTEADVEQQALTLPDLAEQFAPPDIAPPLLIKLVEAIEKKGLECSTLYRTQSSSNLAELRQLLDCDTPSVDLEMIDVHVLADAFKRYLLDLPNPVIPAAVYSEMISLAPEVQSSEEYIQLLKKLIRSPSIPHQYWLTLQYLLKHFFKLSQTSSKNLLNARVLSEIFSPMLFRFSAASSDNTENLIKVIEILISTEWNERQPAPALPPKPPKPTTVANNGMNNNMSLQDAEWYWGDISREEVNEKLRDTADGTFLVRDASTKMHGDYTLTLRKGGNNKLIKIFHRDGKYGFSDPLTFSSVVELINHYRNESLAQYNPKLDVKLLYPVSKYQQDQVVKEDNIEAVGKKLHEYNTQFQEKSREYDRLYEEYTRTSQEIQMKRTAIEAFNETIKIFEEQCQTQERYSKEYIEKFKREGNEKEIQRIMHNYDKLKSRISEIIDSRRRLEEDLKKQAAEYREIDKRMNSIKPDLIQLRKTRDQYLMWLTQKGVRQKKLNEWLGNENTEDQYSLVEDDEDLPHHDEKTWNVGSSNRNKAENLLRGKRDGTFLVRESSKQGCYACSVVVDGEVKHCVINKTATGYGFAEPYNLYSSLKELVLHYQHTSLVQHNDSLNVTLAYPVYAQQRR

On to `Cc1ccc(C(O)(C(N)=O)C(F)(F)F)cc1-c1cnc(N)c(N2CCN(c3cccc(C(F)(F)F)c3)CC2)n1` (stereo not drawn) [Example 121, 2-(3-(5-amino-6-(4-(3-(trifluoromethyl)phenyl)piperazin-1-yl)pyrazin-2-yl)-4-methylphenyl)-3,3,3-trifluoro-2-hydroxypropanamide trifluoroacetate], for which the IC50 in assay [1] (Table A4) is under 500 nM; in assay [2] (Table A4) it was over 1000 nM. Consider `Cc1ccc(C(O)(C(N)=O)C(F)(F)F)cc1-c1cnc(N)c(-c2cncnc2)n1` (stereo not drawn) [Example 81, 2-(3-(5-amino-6-(pyrimidin-5-yl)pyrazin-2-yl)-4-methylphenyl)-3,3,3-trifluoro-2-hydroxypropanamide trifluoroacetate], for which the IC50 in assay [1] (Table A3) and in assay [2] (Table A3) was under 500 nM throughout. In the case of `CNC(=O)C(O)(c1ccc(C)c(-c2cnc(N)c(-c3cnn(C)c3)n2)c1)C(F)(F)F` (stereo not drawn) [Example 96, 2-(3-(5-Amino-6-(1-methyl-1H-pyrazol-4-yl)pyrazin-2-yl)-4-methylphenyl)-3,3,3-trifluoro-2-hydroxy-N-methylpropanamide], the 50% inhibitory concentration (IC50) is under 500 nM in assay [1] (Table A3) and under 100 nM in assay [2] (Table A3). As for `CCCc1nc(-c2cc(C(O)(C(N)=O)C(F)(F)F)ccc2C)cnc1N` (stereo not drawn) [Example 45, 2-(3-(5-amino-6-propylpyrazin-2-yl)-4-methylphenyl)-3,3,3-trifluoro-2-hydroxypropanamide], the concentration for half-maximal inhibition (IC50) in assay [1] (Table A2) and in assay [2] (Table A2) was under 500 nM each time.

On to `Cc1ccc(C(O)(C(N)=O)C(F)(F)F)cc1-c1cnc(N)c(-c2cccc(C(C)C)c2)n1` (stereo not drawn) [Example 90, 2-(3-(5-amino-6-(3-isopropylphenyl)pyrazin-2-yl)-4-methylphenyl)-3,3,3-trifluoro-2-hydroxypropanamide trifluoroacetate], for which the IC50 in assay [1] (Table A3) and in assay [2] (Table A3) was under 500 nM throughout. `C/C=C\c1nc(-c2cc(C(O)(C(N)=O)C(F)(F)F)ccc2C)cnc1N` (stereo not drawn) [Example 44, (Z)-2-(3-(5-amino-6-(prop-1-en-1-yl)pyrazin-2-yl)-4-methylphenyl)-3,3,3-trifluoro-2-hydroxypropanamide]: the half-maximal inhibitory concentration (IC50) in assay [1] (Table A2) was under 500 nM. As for `Cc1ccc(C(O)(C(N)=O)C(F)(F)F)cc1-c1cnc(N)c(-c2ccc(C3CC3)cc2)n1` (stereo not drawn) [Example 92, 2-(3-(5-amino-6-(4-cyclopropylphenyl)pyrazin-2-yl)-4-methylphenyl)-3,3,3-trifluoro-2-hydroxypropanamide trifluoroacetate], the half-maximal inhibitory concentration (IC50) in assay [1] (Table A3) and in assay [2] (Table A3) was under 500 nM throughout. With `Cc1ccc(C(O)(C(N)=O)C(F)(F)F)cc1-c1cnc(N)c(N2CCN(C(C)(C)C)C(=O)C2)n1` (stereo not drawn) [Example 113, 2-(3-(5-amino-6-(4-tert-butyl-3-oxopiperazin-1-yl)pyrazin-2-yl)-4-methylphenyl)-3,3,3-trifluoro-2-hydroxypropanamide trifluoroacetate], the IC50 in assay [1] (Table A4) and in assay [2] (Table A4) was under 500 nM in each case. Turning to `Cc1ccc(C(O)(C(N)=O)C(F)(F)F)cc1-c1cnc(N)c(C(F)(F)F)n1` (stereo not drawn) [Example 46, 2-(3-(5-Amino-6-(trifluoromethyl)pyrazin-2-yl)-4-methylphenyl)-3,3,3-trifluoro-2-hydroxypropanamide trifluoroacetate], the IC50 in assay [1] (Table A2) was under 500 nM. With `Cc1ccc(C(O)(C(N)=O)C(F)(F)F)cc1-c1cnc(N)c(N2CCN(c3ccccc3C)CC2)n1` (stereo not drawn) [Example 118, 2-(3-(5-amino-6-(4-o-tolylpiperazin-1-yl)pyrazin-2-yl)-4-methylphenyl)-3,3,3-trifluoro-2-hydroxypropanamide trifluoroacetate], the IC50 in assay [1] (Table A4) was under 500 nM; in assay [2] (Table A4) it was under 1000 nM. In the same order, the values of `Cc1ccc(C(O)(C(N)=O)C(F)(F)F)cc1-c1cnc(N)c(N2CCN(C3CC3)C(=O)C2)n1` (stereo not drawn) [Example 112, 2-(3-(5-amino-6-(4-cyclopropyl-3-oxopiperazin-1-yl)pyrazin-2-yl)-4-methylphenyl)-3,3,3-trifluoro-2-hydroxypropanamide trifluoroacetate] are under 500 nM and under 500 nM. `Cc1ccc(C(O)(C(N)=O)C(F)(F)F)cc1-c1cnc(N)c(N2CC(=O)N(c3ccc(O)cc3)[C@@H](CO)C2)n1` (stereo partly drawn) [Example 124, 2-(3-(5-amino-6-((R)-3-(hydroxymethyl)-4-(4-hydroxyphenyl)-5-oxopiperazin-1-yl)pyrazin-2-yl)-4-methylphenyl)-3,3,3-trifluoro-2-hydroxypropanamide trifluoroacetate]: the IC50 was under 500 nM in assay [1] (Table A4) and under 1000 nM in assay [2] (Table A4). The corresponding values for `Cc1ccc(C)c(N2CCN(c3nc(-c4cc(C(O)(C(N)=O)C(F)(F)F)ccc4C)cnc3N)CC2)c1` (stereo not drawn) [Example 119, 2-(3-(5-amino-6-(4-(2,5-dimethylphenyl)piperazin-1-yl)pyrazin-2-yl)-4-methylphenyl)-3,3,3-trifluoro-2-hydroxypropanamide trifluoroacetate] are under 500 nM and over 1000 nM.

As to `CCOc1ccccc1N1CCN(c2nc(-c3cc(C(O)(C(N)=O)C(F)(F)F)ccc3C)cnc2N)CC1` (stereo not drawn) [Example 129, 2-(3-(5-amino-6-(4-(2-ethoxyphenyl)piperazin-1-yl)pyrazin-2-yl)-4-methylphenyl)-3,3,3-trifluoro-2-hydroxypropanamide trifluoroacetate], the IC50 in assay [1] (Table A4) was under 500 nM; in assay [2] (Table A4) it was under 1000 nM. Turning to `Cc1ccc(C(O)(C(N)=O)C(F)(F)F)cc1-c1cnc(N)c(C(=O)N2CCc3cccnc32)n1` (stereo not drawn) [Example 28, 2-(3-(5-amino-6-(2,3-dihydro-1H-pyrrolo[2,3-b]pyridine-1-carbonyl)pyrazin-2-yl)-4-methylphenyl)-3,3,3-trifluoro-2-hydroxypropanamide], the results for the IC50 in assay [1] (Table A1) and in assay [2] (Table A1) were under 500 nM and under 100 nM, respectively. Regarding `Cc1ccc(C(O)(C(N)=O)C(F)(F)F)cc1-c1cnc(N)c(N2CCN(c3ccccc3)CC2)n1` (stereo not drawn) [Example 116, 2-(3-(5-amino-6-(4-phenylpiperazin-1-yl)pyrazin-2-yl)-4-methylphenyl)-3,3,3-trifluoro-2-hydroxypropanamide trifluoroacetate], the IC50 in assay [1] (Table A4) was under 500 nM; in assay [2] (Table A4, cells given with + symbol), under 100 nM. For the compound `Cc1ccc(C(O)(CNC(=O)C(C)(C)O)C(F)(F)F)cc1-c1cnc(N)c(C(=O)NC(C)C)n1` (stereo not drawn) [Example 41, 3-Amino-N-isopropyl-6-(2-methyl-5-(1,1,1-trifluoro-2-hydroxy-3-(2-hydroxy-2-methylpropanamido)propan-2-yl)phenyl)pyrazine-2-carboxamide trifluoroacetate], the half-maximal inhibitory concentration (IC50) in assay [1] (Table A1) is under 500 nM; in assay [2] (Table A1) it was over 1000 nM. For the compound `CNC(=O)c1ccc(-c2nc(-c3cc(C(O)(C(N)=O)C(F)(F)F)ccc3C)cnc2N)cn1` (stereo not drawn) [Example 80, 5-(3-amino-6-(5-(3-amino-1,1,1-trifluoro-2-hydroxy-3-oxopropan-2-yl)-2-methylphenyl)pyrazin-2-yl)-N-methylpicolinamide bistrifluoroacetate], the IC50 in assay [1] (Table A3) was under 500 nM; in assay [2] (Table A3), under 1000 nM. In the same order, the values of `Cc1ccc(C(O)(CNC=O)C(F)(F)F)cc1-c1cnc(N)c(-c2cn[nH]c2)n1` (stereo not drawn) [Example 103, N-(2-(3-(5-amino-6-(1H-pyrazol-4-yl)pyrazin-2-yl)-4-methylphenyl)-3,3,3-trifluoro-2-hydroxypropyl)formamide trifluoroacetate] are under 500 nM and under 500 nM.

For the origin of these results see patent US11046658B2, “Aminopyrazine derivatives as PI3K-γ inhibitors” (Incyte Corporation, priority 2018, dated 2021).
